Experimental findings from paper PMC8512560, “Design, Synthesis, and Antipoliferative Activities of Novel Substituted Imidazole-Thione Linked Benzotriazole Derivatives” (Molecules, 2021) are described below.

Where only a bound is given, the exact number is not on record here.

One assay deals with HL-60 cells. The assay can be described thus: Annexin V/PI apoptotic assay by flow cytometry. It is filed as cell-based, human. Conditions: BI9 1 µM, CA-4 concentration not given, control 1.6%. How it is done: Apoptotic cell death was detected by flow cytometry using Annexin V and propidium iodide (PI). HL-60 Cells were seeded in 6 well plated at density of 1 × 10^5 cells/mL and treated with vehicle (0.1% (v/v) EtOH), positive control (CA-4) or compound BI9 (1 µM) for 48 and 72 h. Cells were then harvested and prepared for flow cytometric analysis. Cells were washed in 1X binding buffer ([…] binding buffer: 0.1M HEPES, pH 7.4; 1.4 M NaCl; 25 mM CaCl2 diluted in dH2O) and incubated in the dark for 30 min on ice in Annexin V-containing binding buffer [1:100]. Cells were then washed once in binding buffer and then re-suspended in PI-containing binding buffer [1:1000]. Samples were analysed immediately using the BD accuri flow cytometer and prism software for analysis the data. Four populations are produced during the assay Annexin V and PI negative (Q4, healthy cells), Annexin V positive and PI negative (Q3, early apoptosis), Annexin V and PI positive (Q2, late apoptosis) and Annexin V negative and PI positive (Q1, necrosis).
(Flow cytometry measures light scatter and fluorescence of single cells or particles in a stream.)

Assay [1] relates to HUVEC human umbilical vein endothelial cell line. The assay can be described thus: MTT viability assay, normal HUVEC cells. To be noted: 72 h, mean ± SD of three independent experiments. It is filed as cell-based. How it is done:
(§1) All the human tumour cell lines MCF-7, HL-60, HCT-116, and HUVEC were cultured in Dulbecco’s Modified Eagle’s Medium (DMEM) with 10% fetal bovine serum, 2 mM L-glutamine and 100 µg/mL penicillin/streptomycin. Cells were maintained at 37 °C in 5% CO2 in a humidified incubator. All cells were sub-cultured three times/week by trypsinization using TrypLE Express (1X).
(§2) The Benzotriazole compounds were evaluated for antiproliferative effect using the MTT viability assay of various cancer cell lines (MCF-7, HCT-116 and HL-60) and the normal human umbilical vein endothelial cell line (HUVEC) to calculate the relative IC50 values for each compound. Cells were seeded in triplicate in 96-well plates at a density of 10 × 10^3 cells/mL in a total volume of 200 µL per well. 0.1% of DMSO was used as a vehicle control. After this time, they were treated with 2 µL test compound which had been pre-prepared as stock solutions in ethanol to furnish the concentration range of study, 10 nM to 100 µM, and re-incubated for a further 72 h. The culture medium was then removed, and the cells washed with 100 µL phosphate buffered saline (PBS) and 50 µL MTT added, to reach a final concentration of 1 mg/mL MTT added. Cells were incubated for 2 h in darkness at 37 °C. At this point solubilisation was begun through the addition of […] DMSO and the cells maintained at room temperature in darkness for 20 min to ensure thorough colour diffusion before reading the absorbance. Plates were incubated for 72 h at 37 °C + 5% CO2. The MTT (5 mg/mL in PBS) was added and incubated for another 4 h, and the optical density was detected with a microplate reader at 570 nm. Results were expressed as percentage viability relative to vehicle control (100%). Dose response curves were plotted and IC50 values (concentration of drug resulting in 50% reduction in cell survival) were obtained using the commercial software package Prism (GraphPad Software, Inc., La Jolla, CA, USA). All the experiments were repeated in at least three independent experiments.

Assay [2] relates to HL-60 human leukemia cancer cell line. The assay is described as follows: MTT viability assay, HL-60. To be noted: Homo sapiens, HL-60, 72 h, mean ± SD of three independent experiments, read-out: Antiproliferative Activities IC50, HL-60. The assay is classed as cell-based. How it is done:
as §1, §2

Assay [3] concerns MCF-7, HL-60 and HCT-116 cancer cell lines. The assay is described as follows: MTT viability assay, values pooled over the cancer cell lines. It is filed as cell-based, human. To be noted: Homo sapiens, MCF-7, HL-60 and HCT-116; MTT; read-out: IC50 values range over the three cancer cell lines. How it is done: as §1, §2
A further assay relates to bovine brain tubulin. The assay is described as follows: Tubulin polymerization assay (turbidimetric, kit BK006). It is filed as biochemical. To be noted: read-out: Anti-Tubulin Activity IC50 ± SD (inhibition of tubulin polymerization). How it is done: The assembly of purified bovine tubulin was monitored using a kit, BK006, purchased from Cytoskeleton Inc., (Denver, CO, USA). The assay was carried out in accordance with the manufacturer’s instructions using the standard assay conditions. Briefly, purified ([…]) in a buffer consisting of 80 mM PIPES (pH 6.9), 0.5 mM EGTA, 2 mM MgCl2, 1 mM GTP and 10% glycerol was incubated at 37 °C in the presence of either vehicle (2% (v/v) ddH2O), CA-4, benzotriazole compounds. Light was scattered proportionally to the concentration of polymerized microtubules in the assay. Therefore, the tubulin assembly was monitored turbidimetrically at 340 nm in a Spectramax 340 PC spectrophotometer (Molecular Devices, Sunnyvale, CA, USA). The concentration that inhibits tubulin polymerization by 50% (IC50) was determined using area under the curve (AUC). The AUC of the untreated controls were considered as 100% polymerization. The IC50 value for each compound was computed using GraphPad Prism Software.

For the next assay, the system named is Bcl-2. The assay can be described thus: Western blot of Bcl-2 expression in HL-60 cells. It is filed as cell-based, human. Conditions: HL-60, 0.5 and 1 µM, compared to the untreated group. How it is done:
HL-60 cells were seeded at a density of 1 × 10^5 cells/flask in T25 flasks. […] HL-60 cells were harvested in RIPA buffer supplemented with protease inhibitors (Roche Diagnostics), phosphatase inhibitor cocktail 2 (Sigma-Aldrich), and phosphatase inhibitor cocktail 3 (Sigma-Aldrich). Equal quantities of protein (as determined by a BCA assay) were resolved by SDS-PAGE (12%) followed by transfer to PVDF membranes. Membranes were blocked in 5% bovine serum albumin/TBST for 1 h. Membranes were incubated in the relevant primary antibodies at 4 °C overnight, washed with TBST, and incubated in horseradish peroxidase conjugated secondary antibody for 1 h at rt and washed again. Western blot analysis was performed as described above using antibodies directed against BAX [1:1000] (Cell Signaling Technology), PARP [1:500] (Cell Signaling Technology) and Bcl-2 [1:500] (Cell Signaling Technology) followed by incubation with a horseradish peroxidase-conjugated anti-mouse antibody [1:2000] (Promega, Madison, WI, USA). All blots were probed with β-actin antibody [1:5000] (Sigma) to confirm equal loading. Proteins were detected using enhanced chemiluminescent Western blot detection (Clarity Western ECL substrate) (Bio Rad) on the ChemiDoc MP System (Bio Rad). Experiments were performed on three independent occasions.
In general terms: Immunoblotting shows a protein as a band on a membrane.

Broadly, the IC50 is the concentration that inhibits the measured activity by half. For `S=c1[nH]c(-n2nnc3ccccc32)cn1-c1ccc(Cl)cc1Cl` [BI9, 4-(1H-Benzo[d][1,2,3]Triazol-1-yl)-1-(2,4-Dichlorophenyl)-1H-Imidazole-2(3H)-Thione], the “Total fraction of early and late apoptotic cells (Annexin V positive)” value with HL-60 cells (48 h) is recorded as 21.5%. In addition, in the assay on HL-60 cells (72 h), the “Average fraction of Annexin V-staining positive cells (total apoptotic cells)” value was 19.2%. Besides, the IC50 was greater than 100000 nM in assay [1], 400 ± 30 nM in assay [2], 400 to 3300 nM in assay [3] and 520 ± 20 nM in the assay on bovine brain tubulin. In the assay on Bcl-2, the “Expression of pro-survival protein Bcl-2” value was “down-regulated”.
